Measurements taken from patent US10150740B2, “6,7-dihydropyrido[2,1-A]phthalazin-2-ones for the treatment and prophylaxis of hepatitis B virus infection” (priority 2015, dated 2018).
Counter-ions that a name gives are not always drawn.

Test system: HBsAg
Experiment: cells
Settings: Hepatitis B virus, HepG2.2.15, read-out: IC50 (HBsAg secretion)
Protocol: HepG2.2.15 cells (Acs et al. Proc Natl Acad Sci USA, 84, (1987), 4641-4), a constitutively HBV-expressing cell line were cultured in DMEM+Glutamax-I medium (Invitrogen, Carlsbad, Calif., USA), supplemented with 10% fetal bovine serum (Invitrogen) and G418 (Invitrogen) at a final concentration of 200 mg/L and maintained in 5% CO2 at 37° C.
HepG2.2.15 cells were seeded in duplicate into white, 96-well plates at 1.5×10^4 cells/well. The cells were treated with a three-fold serial dilution series of the compounds in DMSO. The final DMSO concentration in all wells was 1% and DMSO was used as no drug control.
The HBsAg chemiluminescence immunoassay (CLIA) kit (Autobio Diagnostics Co., Zhengzhou, China, Catalog number: CL0310-2) was used to measure the levels of secreted HBV antigens semi-quantitatively. For the detection 50 μL/well culture supernatant was used and HBsAg was quantified using HBsAg chemiluminescence immunoassay (CLIA) kit (Autobio Diagnostics Co., Zhengzhou, China, Catalog number: CL0310-2), 50 μL of the supernatant was transferred to the CLIA assay plate and 50 μL of enzyme conjugate reagent was added into each well. The plates were sealed and gently agitated for 1 hour at room temperature. The supernatant-enzyme-mixture was discarded and wells were washed 6 times with 300 μL of PBS. The residual liquid was removed by plating the CLIA plate right side down on absorbent tissue paper. 25 μL of substrates A and B were added to each well. Luminance was measured using a luminometer (Mithras LB 940 Multimode Microplate Reader) after 10 minutes incubation. Dose-response curves were generated and the IC50 value was extrapolated by using the E-WorkBook Suite (ID Business Solutions Ltd., Guildford, UK). The IC50 was defined as the compound concentration (or conditioned media log dilution) at which HBsAg secretion was reduced by 50% compared to the no drug control.

SMILES	IC50 [nM]
COc1cc2c(cc1OC)-c1cc(=O)c(C(=O)O)cn1NC2 [Example 1, 9,10-Dimethoxy-2-oxo-6,7-dihydropyrido[2,1-a]phthalazine-3-carboxylic acid]	18700
COc1cc2c(cc1OC)-c1cc(=O)c(C(=O)O)cn1N(C)C2 [Example 2, 9,10-Dimethoxy-6-methyl-2-oxo-7H-pyrido[2,1-a]phthalazine-3-carboxylic acid]	2530
C=CCN1Cc2cc(OC)c(OC)cc2-c2cc(=O)c(C(=O)O)cn21 [Example 3, 6-Allyl-9,10-dimethoxy-2-oxo-7H-pyrido[2,1-a]phthalazine-3-carboxylic acid]	740
COc1cc2c(cc1OC)-c1cc(=O)c(C(=O)O)cn1N(C(C)C)C2 [Example 4, 6-Isopropyl-9,10-dimethoxy-2-oxo-7H-pyrido[2,1-a]phthalazine-3-carboxylic acid]	26100
COc1cc2c(cc1OC)-c1cc(=O)c(C(=O)O)cn1N(CC(C)C)C2 [Example 5, 6-Isobutyl-9,10-dimethoxy-2-oxo-7H-pyrido[2,1-a]phthalazine-3-carboxylic acid]	248
COCCCOc1cc2c(cc1OC)-c1cc(=O)c(C(=O)O)cn1N(CC(C)C)C2 [Example 6, 6-Isobutyl-10-methoxy-9-(3-methoxypropoxy)-2-oxo-7H-pyrido[2,1-a]phthalazine-3-carboxylic acid]	53
COc1cc2c(cc1OCC(F)(F)F)CN(CC(C)C)n1cc(C(=O)O)c(=O)cc1-2 [Example 7, 6-Isobutyl-10-methoxy-2-oxo-9-(2,2,2-trifluoroethoxy)-7H-pyrido[2,1-a]phthalazine-3-carboxylic acid]	172
COc1cc2c(cc1OCC1CCOCC1)CN(CC(C)C)n1cc(C(=O)O)c(=O)cc1-2 [Example 8, 6-Isobutyl-10-methoxy-2-oxo-9-(tetrahydropyran-4-ylmethoxy)-7H-pyrido[2,1-a]phthalazine-3-carboxylic acid]	44
COc1cc2c(cc1OCCCS(C)(=O)=O)CN(CC(C)C)n1cc(C(=O)O)c(=O)cc1-2 [Example 9, 6-Isobutyl-10-methoxy-9-(3-methylsulfonylpropoxy)-2-oxo-7H-pyrido[2,1-a]phthalazine-3-carboxylic acid]	624
COc1cc2c(cc1OCCN1CCOCC1)CN(CC(C)C)n1cc(C(=O)O)c(=O)cc1-2 [Example 10, 6-Isobutyl-10-methoxy-9-(2-morpholinoethoxy)-2-oxo-7H-pyrido[2,1-a]phthalazine-3-carboxylic acid]	225
COc1cc2c(cc1OCC(C)(C)CO)CN(CC(C)C)n1cc(C(=O)O)c(=O)cc1-2 [Example 11, 9-(3-Hydroxy-2,2-dimethyl-propoxy)-6-isobutyl-10-methoxy-2-oxo-7H-pyrido[2,1-a]phthalazine-3-carboxylic acid]	39
COc1cc2c(cc1OCCCCC(=O)O)CN(CC(C)C)n1cc(C(=O)O)c(=O)cc1-2 [Example 12, 9-(4-Carboxybutoxy)-6-isobutyl-10-methoxy-2-oxo-7H-pyrido[2,1-a]phthalazine-3-carboxylic acid]	9430
COc1cc2c(cc1OCCCC#N)CN(CC(C)C)n1cc(C(=O)O)c(=O)cc1-2 [Example 13, 9-(3-Cyanopropoxy)-6-isobutyl-10-methoxy-2-oxo-7H-pyrido[2,1-a]phthalazine-3-carboxylic acid]	110
COc1cc2c(cc1OCCCCCNC(=O)OC(C)(C)C)CN(CC(C)C)n1cc(C(=O)O)c(=O)cc1-2 [Example 14, 9-[5-(Tert-butoxycarbonylamino)pentoxy]-6-isobutyl-10-methoxy-2-oxo-7H-pyrido[2,1-a]phthalazine-3-carboxylic acid]	47
COc1cc2c(cc1OCCCCCN)CN(CC(C)C)n1cc(C(=O)O)c(=O)cc1-2 [Example 15, 9-(5-Aminopentoxy)-6-isobutyl-10-methoxy-2-oxo-7H-pyrido[2,1-a]phthalazine-3-carboxylic acid hydrochloride]	500
